Test results published in patent publication US9938258B2 (Karyopharm Therapeutics Inc., priority 2012, dated 2018).
Where two headings read alike, the source gives them in different places.

How the values were obtained:
MS751 cells = assay: MTT cell proliferation assay, MS751; type: cell-based, human; conditions: Homo sapiens
How it was run: (§1)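 Cells plated at 5,000-10,000/well and attached overnight, then treated with eight compound concentrations from 1 nM to 30 μM. MTT added ~4 h, formazan solubilised and read at 490 nm. Percent inhibition versus negative control = (1-(ODo/OD))×100, mostly in duplicate, mean ± SE.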

Z138 cells = assay: MTT cell proliferation assay, Z138; type: cell-based; conditions: Homo sapiens
How it was run: as §1

3T3 cells = assay: MTT cell proliferation assay, 3T3; type: cell-based, mouse; conditions: Mus musculus
How it was run: as §1

[1] = MS751, MS751 cells, approximately 64-72 hours incubation, read-out: MTT Assay IC50, MS751
[2] = Z-138, Z138 cells, approximately 64-72 hours incubation, read-out: MTT Assay IC50, Z138
[3] = NIH3T3, 3T3 cells, approximately 64-72 hours incubation, read-out: MTT Assay IC50, 3T3
[4] = MS751, read-out: MTT Assay IC50, MS751
[5] = Z-138, read-out: MTT Assay IC50, Z138
[6] = NIH3T3, read-out: MTT Assay IC50, 3T3

Nc1ccc(/C=C/C(=O)NCC2Cc3cc(-c4ccc(C(=O)N5CCCCC5)cn4)cc(Cl)c3O2)cn1 (stereo not drawn) [Compound 339, (E)-3-(6-aminopyridin-3-yl)-N-((7-chloro-5-(5-(piperidine-1-carbonyl)pyridin-2-yl)-2,3-dihydrobenzofuran-2-yl)methyl)acrylamide]
IC50 (MS751 cells; [1]): 0.1 to 5 µM | IC50 (Z138 cells; [2]): < 0.1 µM | IC50 (3T3 cells; [3]): 5 to 30 µM

Nc1ccc(/C=C/C(=O)NCC2Cc3c(-c4ccc(C(=O)N5CC(F)(F)C5)cc4)ccc(Cl)c3O2)cn1 (stereo not drawn) [Compound 340, (E)-3-(6-aminopyridin-3-yl)-N-((7-chloro-4-(4-(3,3-difluoroazetidine-1-carbonyl)phenyl)-2,3-dihydrobenzofuran-2-yl)methyl)acrylamide]
IC50 (MS751 cells; [1]): < 0.1 µM | IC50 (Z138 cells; [2]): 0.1 to 5 µM | IC50 (3T3 cells; [3]): < 0.1 µM

Nc1ccc(/C=C/C(=O)NCC2Cc3c(-c4ccccc4C(=O)N4CC(F)(F)C4)ccc(Cl)c3O2)cn1 (stereo not drawn) [Compound 341, (E)-3-(6-aminopyridin-3-yl)-N-((7-chloro-4-(2-(3,3-difluoroazetidine-1-carbonyl)phenyl)-2,3-dihydrobenzofuran-2-yl)methyl)acrylamide]
IC50 (MS751 cells; [1]): < 0.1 µM | IC50 (Z138 cells; [2]): 0.1 to 5 µM | IC50 (3T3 cells; [3]): < 0.1 µM

Nc1ccc(/C=C/C(=O)NCC2Cc3cc(-c4ccc(C(=O)N5CCNCC5)nc4)cc(Cl)c3O2)cn1 (stereo not drawn) [Compound 342, (E)-3-(6-aminopyridin-3-yl)-N-((7-chloro-5-(6-(piperazine-1-carbonyl)pyridin-3-yl)-2,3-dihydrobenzofuran-2-yl)methyl)acrylamide]
IC50 (MS751 cells; [1]): 0.1 to 5 µM | IC50 (Z138 cells; [2]): > 30 µM | IC50 (3T3 cells; [3]): 0.1 to 5 µM

CN1C(=O)c2ccc(-c3cc(Cl)c4c(c3)CC(CNC(=O)/C=C/c3ccc(N)nc3)O4)cc2C1=O (stereo not drawn) [Compound 343, (E)-3-(6-aminopyridin-3-yl)-N-((7-chloro-5-(2-methyl-1,3-dioxoisoindolin-5-yl)-2,3-dihydrobenzofuran-2-yl)methyl)acrylamide]
IC50 (MS751 cells; [1]): 0.1 to 5 µM | IC50 (Z138 cells; [2]): > 30 µM | IC50 (3T3 cells; [3]): < 0.1 µM

Nc1ccc(/C=C/C(=O)NCC2Cc3c(-c4ccccc4C(=O)N4CCOCC4)ccc(Cl)c3O2)cn1 (stereo not drawn) [Compound 344, (E)-3-(6-aminopyridin-3-yl)-N-((7-chloro-4-(2-(morpholine-4-carbonyl)phenyl)-2,3-dihydrobenzofuran-2-yl)methyl)acrylamide]
IC50 (MS751 cells; [1]): < 0.1 µM | IC50 (Z138 cells; [2]): 0.1 to 5 µM | IC50 (3T3 cells; [3]): < 0.1 µM

COc1cc(-c2ccc(C(=O)N3CCOCC3)cc2)cc2c1OC(CNC(=O)/C=C/c1ccc(N)nc1)C2 (stereo not drawn) [Compound 345, (E)-3-(6-aminopyridin-3-yl)-N-((7-methoxy-5-(4-(morpholine-4-carbonyl)phenyl)-2,3-dihydrobenzofuran-2-yl)methyl)acrylamide]
IC50 (MS751 cells; [4]): < 0.1 µM | IC50 (Z138 cells; [5]): 0.1 to 5 µM | IC50 (3T3 cells; [6]): < 0.1 µM

Nc1ccc(/C=C/C(=O)NCC2Cc3cc(-c4ccc(C(=O)N5CCOCC5)cc4)cc(C(F)(F)F)c3O2)cn1 (stereo not drawn) [Compound 346, (E)-3-(6-aminopyridin-3-yl)-N-((5-(4-(morpholine-4-carbonyl)phenyl)-7-(trifluoromethyl)-2,3-dihydrobenzofuran-2-yl)methyl)acrylamide]
IC50 (MS751 cells; [1]): < 0.1 µM | IC50 (Z138 cells; [2]): 0.1 to 5 µM | IC50 (3T3 cells; [3]): < 0.1 µM

Nc1ccc(/C=C/C(=O)NCC2Cc3cc(-c4ccc(C(=O)N5CCOCC5)cc4)cc(O)c3O2)cn1 (stereo not drawn) [Compound 347, (E)-3-(6-aminopyridin-3-yl)-N-((7-hydroxy-5-(4-(morpholine-4-carbonyl)phenyl)-2,3-dihydrobenzofuran-2-yl)methyl)acrylamide]
IC50 (MS751 cells; [1]): 0.1 to 5 µM | IC50 (Z138 cells; [2]): > 30 µM | IC50 (3T3 cells; [3]): 0.1 to 5 µM

Nc1ccc(/C=C/C(=O)NCC2Oc3c(Cl)cc(-c4ccc(C(=O)N5CCOCC5)cc4)cc3C2=O)cn1 (stereo not drawn) [Compound 348, (E)-3-(6-aminopyridin-3-yl)-N-((7-chloro-5-(4-(morpholine-4-carbonyl)phenyl)-3-oxo-2,3-dihydrobenzofuran-2-yl)methyl)acrylamide]
IC50 (MS751 cells; [4]): 0.1 to 5 µM | IC50 (Z138 cells; [5]): 5 to 30 µM | IC50 (3T3 cells; [6]): 0.1 to 5 µM

CC1(CNC(=O)/C=C/c2ccc(N)nc2)Cc2cc(-c3ccc(C(=O)N4CCOCC4)cc3)cc(Cl)c2O1 (stereo not drawn) [Compound 349, (E)-3-(6-aminopyridin-3-yl)-N-((7-chloro-2-methyl-5-(4-(morpholine-4-carbonyl)phenyl)-2,3-dihydrobenzofuran-2-yl)methyl)acrylamide]
IC50 (MS751 cells; [1]): 0.1 to 5 µM | IC50 (Z138 cells; [2]): 0.1 to 5 µM | IC50 (3T3 cells; [3]): < 0.1 µM

Nc1ccc(CNC(=O)/C=C/C2Cc3cc(-c4ccc(S(=O)(=O)N5CCOCC5)cc4)cc(Cl)c3O2)cn1 (stereo not drawn) [Compound 350, (E)-N-((6-aminopyridin-3-yl)methyl)-3-(7-chloro-5-(4-(morpholinosulfonyl)phenyl)-2,3-dihydrobenzofuran-2-yl)acrylamide]
IC50 (MS751 cells; [1]): 0.1 to 5 µM | IC50 (Z138 cells; [2]): > 30 µM | IC50 (3T3 cells; [3]): 0.1 to 5 µM

Nc1ccc(CNC(=O)/C=C/C2Cc3cc(-c4ccc(C(=O)N5CC(F)(F)C5)cc4)cc(Cl)c3O2)cn1 (stereo not drawn) [Compound 351, (E)-N-((6-aminopyridin-3-yl)methyl)-3-(7-chloro-5-(4-(3,3-difluoroazetidine-1-carbonyl)phenyl)-2,3-dihydrobenzofuran-2-yl)acrylamide]
IC50 (MS751 cells; [1]): 0.1 to 5 µM | IC50 (Z138 cells; [2]): 0.1 to 5 µM | IC50 (3T3 cells; [3]): 0.1 to 5 µM

Nc1ccc(CNC(=O)/C=C/C2Cc3c(-c4ccc(C(=O)N5CC(F)C5)cc4)ccc(Cl)c3O2)cn1 (stereo not drawn) [Compound 352, (E)-N-((6-aminopyridin-3-yl)methyl)-3-(7-chloro-4-(4-(3-fluoroazetidine-1-carbonyl)phenyl)-2,3-dihydrobenzofuran-2-yl)acrylamide]
IC50 (MS751 cells; [1]): 0.1 to 5 µM | IC50 (Z138 cells; [2]): > 30 µM | IC50 (3T3 cells; [3]): 5 to 30 µM

CCOC(=O)CCOCCOCCC(=O)N1CCN(C(=O)c2ccc(-c3cc(Cl)c4c(c3)CC(CNC(=O)/C=C/c3ccc(N)nc3)O4)cc2)CC1 (stereo not drawn) [Compound 354, (E)-ethyl 3-(2-(3-(4-(4-(2-((3-(6-aminopyridin-3-yl)acrylamido)methyl)-7-chloro-2,3-dihydrobenzofuran-5-yl)benzoyl)piperazin-1-yl)-3-oxopropoxy)ethoxy)propanoate]
IC50 (MS751 cells; [1]): < 0.1 µM | IC50 (Z138 cells; [2]): 5 to 30 µM | IC50 (3T3 cells; [3]): < 0.1 µM

CC(C)(C)c1ccc(-c2ccc(C(=O)N3CCOCC3)cc2)c2c1OC(CNC(=O)/C=C/c1ccc(N)nc1)C2 (stereo not drawn) [Compound 355, (E)-3-(6-aminopyridin-3-yl)-N-((7-(tert-butyl)-4-(4-(morpholine-4-carbonyl)phenyl)-2,3-dihydrobenzofuran-2-yl)methyl)acrylamide]
IC50 (MS751 cells; [1]): > 30 µM | IC50 (Z138 cells; [2]): > 30 µM | IC50 (3T3 cells; [3]): 0.1 to 5 µM

Nc1ccc(CNC(=O)/C=C/C2Cc3cc(-c4cccc(S(=O)(=O)N5CCOCC5)c4)cc(Cl)c3O2)cn1 (stereo not drawn) [Compound 357, (E)-N-((6-aminopyridin-3-yl)methyl)-3-(7-chloro-5-(3-(morpholinosulfonyl)phenyl)-2,3-dihydrobenzofuran-2-yl) acrylamide]
IC50 (MS751 cells; [1]): < 0.1 µM | IC50 (Z138 cells; [2]): 0.1 to 5 µM | IC50 (3T3 cells; [3]): < 0.1 µM

Nc1ccc(CNC(=O)/C=C/C2Cc3cc(-c4ccc(C(=O)N5CC[C@@H](F)C5)cc4)cc(Cl)c3O2)cn1 (stereo partly drawn) [Compound 358, (E)-N-((6-aminopyridin-3-yl)methyl)-3-(7-chloro-5-(4-((R)-3-fluoropyrrolidine-1-carbonyl)phenyl)-2,3-dihydrobenzofuran-2-yl)acrylamide]
IC50 (MS751 cells; [1]): 0.1 to 5 µM | IC50 (Z138 cells; [2]): > 30 µM | IC50 (3T3 cells; [3]): 0.1 to 5 µM

Nc1ccc(CNC(=O)/C=C/C2Cc3cc(-c4ccc(C(=O)N5CC[C@H](F)C5)cc4)cc(Cl)c3O2)cn1 (stereo partly drawn) [Compound 359, (E)-N-((6-Aminopyridin-3-yl)methyl)-3-(7-chloro-5-(4-((S)-3-fluoropyrrolidine-1-carbonyl)phenyl)-2,3-dihydrobenzofuran-2-yl)acrylamide]
IC50 (MS751 cells; [1]): 0.1 to 5 µM | IC50 (Z138 cells; [2]): > 30 µM | IC50 (3T3 cells; [3]): 5 to 30 µM

Nc1ccc(CNC(=O)/C=C/C2Cc3cc(-c4ccccc4S(=O)(=O)N4CCOCC4)cc(Cl)c3O2)cn1 (stereo not drawn) [Compound 360, (E)-N-((6-aminopyridin-3-yl)methyl)-3-(7-chloro-5-(2-(morpholinosulfonyl)phenyl)-2,3-dihydrobenzofuran-2-yl)acrylamide]
IC50 (MS751 cells; [1]): < 0.1 µM | IC50 (Z138 cells; [2]): 0.1 to 5 µM | IC50 (3T3 cells; [3]): < 0.1 µM

Nc1ccc(CNC(=O)/C=C/C2Cc3cc(-c4ccc(C(=O)N5CC(F)C5)cc4)cc(Cl)c3O2)cn1 (stereo not drawn) [Compound 361, (E)-N-((6-Aminopyridin-3-yl)methyl)-3-(7-chloro-5-(4-(3-fluoroazetidine-1-carbonyl)phenyl)-2,3-dihydrobenzofuran-2-yl)acrylamide]
IC50 (MS751 cells; [1]): 0.1 to 5 µM | IC50 (Z138 cells; [2]): 0.1 to 5 µM | IC50 (3T3 cells; [3]): 0.1 to 5 µM

CC1(C)CN(C(=O)c2ccc(-c3cc(Cl)c4c(c3)CC(/C=C/C(=O)NCc3ccc(N)nc3)O4)cc2)C1 (stereo not drawn) [Compound 362, (E)-N-((6-aminopyridin-3-yl)methyl)-3-(7-chloro-5-(4-(3,3-dimethylazetidine-1-carbonyl)phenyl)-2,3-dihydrobenzofuran-2-yl)acrylamide]
IC50 (MS751 cells; [1]): < 0.1 µM | IC50 (Z138 cells; [2]): > 30 µM | IC50 (3T3 cells; [3]): < 0.1 µM

Nc1ccc(CNC(=O)/C=C/C2Cc3cc(-c4ccc(S(=O)(=O)N5CC(F)(F)C5)cc4)cc(Cl)c3O2)cn1 (stereo not drawn) [Compound 363, (E)-N-((6-aminopyridin-3-yl)methyl)-3-(7-chloro-5-(4-(3,3-difluoroazetidin-1-ylsulfonyl)phenyl)-2,3-dihydrobenzofuran-2-yl)acrylamide]
IC50 (MS751 cells; [1]): > 30 µM | IC50 (Z138 cells; [2]): > 30 µM | IC50 (3T3 cells; [3]): 5 to 30 µM

Nc1ccc(CNC(=O)/C=C/C2Cc3c(-c4ccc(S(=O)(=O)N5CCOCC5)cc4)ccc(Cl)c3O2)cn1 (stereo not drawn) [Compound 364, (E)-N-((6-aminopyridin-3-yl)methyl)-3-(7-chloro-4-(4-(morpholinosulfonyl)phenyl)-2,3-dihydrobenzofuran-2-yl)acrylamide]
IC50 (MS751 cells; [1]): 0.1 to 5 µM | IC50 (Z138 cells; [2]): > 30 µM | IC50 (3T3 cells; [3]): 5 to 30 µM
